Assay results taken from paper PMC10673258, “Taxifolin as a Metallo-β-Lactamase Inhibitor in Combination with Augmentin against Verona Imipenemase 2 Expressing Pseudomonas aeruginosa” (Microorganisms, 2023).
Values joined by “and” are separate entries in the source; they are usually repeats but may differ in a detail not shown here. Identical values can stand only once. Like-named read-outs stand apart in the source and are kept apart here.

Columns and labels:
[1] = design: method as in PMID 27864057; details: read-out: Kd (Zn binding); cited from earlier work
[2] = molecular target: T1, VIM-2 (Pseudomonas aeruginosa, UniProt Q9K2N0); test: VIM-2 enzyme kinetics with nitrocefin, competitive inhibition model; assay type: biochemical
T1 construct: The activity of purified VIM-2 was measured spectrophotometrically; made in house
Method: Nitrocefin was used as the substrate, as it is a chromogenic cephalosporin. The activity of purified VIM-2 was measured spectrophotometrically (Cytation 3, BioTek, Winooski, VT, USA) in a potassium phosphate buffer (PBS, pH = 7.4, prepared according to a published recipe).

[3] = Toxicity against wild type human HEK 293T cells; assay type: cell-based; details: HEK293T cells (wild type); quercetin analogs alone; human kidney cell line HEK293T
[4] = tested on: PAX5VIM-2 (VIM-2 expressing bioluminescent PA); test: MIC assay against PAX5VIM-2 (CLSI, MHB-2); assay type: cell-based, Pseudomonas aeruginosa
Method: MIC assays were carried out following the Clinical and Laboratory Standards Institute (CLSI) established guidelines using MHB-2 and bacterial concentrations of 5 × 10^5 CFU/mL [57, 58]. A varying concentration of quercetin derivatives or conventional antibiotics was dissolved in the media with bacteria cells. The resulting suspensions were transferred to a 96-well microliter plate at 200 μL/well (triplicate for each compound). The plate was then incubated overnight at 37 °C. The MIC was determined as the concentration at which no growth was observed.

[5] = tested on: PAX5-WT; test: Single dose inhibition against SBL-producing PAX5-WT; assay type: cell-based, Pseudomonas aeruginosa; details: amoxicillin 25 μM; amoxicillin:taxifolin 1:1; QATC 2:1:2
Method: Bacteria were diluted to 5 × 10^5 CFU/mL in MH broth (MHB). A growth control containing only bacteria and a negative control containing only MHB were added. Test wells were treated with either 25 µM meropenem, ceftazidime, amoxicillin, or doripenem, as well as 1:1 combinations of the previous antibiotics with vaborbactam. Each set was repeated in triplicate, and the final viability was determined in reference to the growth control.
Supplementary Figure S9. Single dose inhibition of taxifolin against SBL-producing PAX5-WT. Concentration of amoxicillin was 25 μM for all samples. The molar ratio of the augmentin was 2:1 (amoxicillin:clavulanate); the molar ratio of the amoxicillin:taxifolin was 1:1; the molar ratio of the QATC was 2:1:2 (amoxicillin:clavulanate:taxifolin).
Supplementary Figure S10. […]

[6] = tested on: HEK 293T cells; test: Toxicity against wild type human HEK 293T cells; assay type: cell-based; details: quercetin analogs alone; human kidney cell line HEK293T
[7] = inhibitor fixed at 500 μM, nitrocefin 5 to 100 μM, PBS pH 7.4, 10 min pre-incubation, read-out: VIM-2, Ki
[8] = quercetin analogs in combination with augmentin (2:1 molar amoxicillin:clavulanate), PAX5VIM-2

Row | Compound | Ki [2, 7] [µM] | CC50 [3] [µM] | MIC [4, 8] [µg/mL] | also measured
1 | O=c1c(O)c(-c2ccc(O)c(O)c2)oc2cc(O)cc(O)c12 [1a, quercetin] | 41 ± 4 |  |  | Kd [1]: ~100 µM
2 | O=c1cc(-c2ccc(O)c(O)c2)oc2c(C3OC(CO)C(O)C(O)C3O)c(O)cc(O)c12 (stereo not drawn) [1d] | 34 ± 4 |  |  | 
3 | O=c1cc(-c2ccc(O)c(O)c2)oc2cc(O)cc(O)c12 [11a] | 36 ± 2 | 175 | 7.2 | 
4 | O=C(O)[C@H]1O[C@@H](Oc2cc(O)c3c(=O)cc(-c4ccc(O)c(O)c4)oc3c2)[C@H](O)[C@@H](O)[C@@H]1O [11b] | 52 ± 9 | 182 | 11.6 | 
5 | CC1(C)S[C@@H]2[C@H](NC(=O)[C@H](N)c3ccc(O)cc3)C(=O)N2[C@H]1C(=O)O [amoxicillin, reference compound] |  |  |  | MIC ([4]; Pseudomonas aeruginosa, read-out: MIC of amoxicillin): 100 µM and 36 µg/mL
6 | O=c1c(O)c(-c2cc(O)c(O)c(O)c2)oc2cc(O)cc(O)c12 [compound 3] | 42 ± 1 |  | 9.4 | 
7 | O=c1c(O)c(-c2ccc(O)c(O)c2)oc2cc(O)c(O)c(O)c12 [compound 4, quercetagetin] |  |  | 3.9 | Ki [2]: 13 ± 2 µM
8 | O=C1c2c(O)cc(O)cc2OC(c2ccc(O)c(O)c2)C1O (stereo not drawn) [compound 5, taxifolin] | 8 ± 1 | > 200 | 3.1 | benefit in the killing of SBL-only PAX5-WT [5]: unable to provide any significant benefit in the killing; concentration inhibiting VIM-2 expressing P. aeruginosa cell proliferation ([4]; as part of a triple combination with amoxicillin and clavulanate): < 4 µg/mL
9 | COc1ccc(-c2cc(=O)c3c(O)cc(O)cc3o2)cc1O [compound 12] |  |  | 7.5 | 
10 | COc1ccc(-c2oc3cc(OC)c(OC)c(O)c3c(=O)c2OC)cc1O [compound 13] |  | > 200 | 9.4 | 
11 | chrysoeriol [compound 14] |  |  | 7.6 | CC50 [6]: > 200 µM
